Data on 33 compounds can be found in patent US7662832B2, “Pyrrolo[2,3-c]pyridine derivatives and processes for the preparation thereof” (priority 2004, dated 2010).

Structures can show the parent of a compound that is named as a salt.

In the assay the target is Proton Pump (H^+/K^+-ATPase) (Sus scrofa, UniProt P19156). Briefly: Inhibitory effects on proton pump (H^+/K^+-ATPase) activity. The assay is classed as biochemical. The following applies: hog gastric vesicles; K^+ stimulated H^+/K^+-ATPase activity; 30 minutes at 37° C.
Sequence of Proton Pump (H^+/K^+-ATPase) (P19156 2-1034 limits assumed): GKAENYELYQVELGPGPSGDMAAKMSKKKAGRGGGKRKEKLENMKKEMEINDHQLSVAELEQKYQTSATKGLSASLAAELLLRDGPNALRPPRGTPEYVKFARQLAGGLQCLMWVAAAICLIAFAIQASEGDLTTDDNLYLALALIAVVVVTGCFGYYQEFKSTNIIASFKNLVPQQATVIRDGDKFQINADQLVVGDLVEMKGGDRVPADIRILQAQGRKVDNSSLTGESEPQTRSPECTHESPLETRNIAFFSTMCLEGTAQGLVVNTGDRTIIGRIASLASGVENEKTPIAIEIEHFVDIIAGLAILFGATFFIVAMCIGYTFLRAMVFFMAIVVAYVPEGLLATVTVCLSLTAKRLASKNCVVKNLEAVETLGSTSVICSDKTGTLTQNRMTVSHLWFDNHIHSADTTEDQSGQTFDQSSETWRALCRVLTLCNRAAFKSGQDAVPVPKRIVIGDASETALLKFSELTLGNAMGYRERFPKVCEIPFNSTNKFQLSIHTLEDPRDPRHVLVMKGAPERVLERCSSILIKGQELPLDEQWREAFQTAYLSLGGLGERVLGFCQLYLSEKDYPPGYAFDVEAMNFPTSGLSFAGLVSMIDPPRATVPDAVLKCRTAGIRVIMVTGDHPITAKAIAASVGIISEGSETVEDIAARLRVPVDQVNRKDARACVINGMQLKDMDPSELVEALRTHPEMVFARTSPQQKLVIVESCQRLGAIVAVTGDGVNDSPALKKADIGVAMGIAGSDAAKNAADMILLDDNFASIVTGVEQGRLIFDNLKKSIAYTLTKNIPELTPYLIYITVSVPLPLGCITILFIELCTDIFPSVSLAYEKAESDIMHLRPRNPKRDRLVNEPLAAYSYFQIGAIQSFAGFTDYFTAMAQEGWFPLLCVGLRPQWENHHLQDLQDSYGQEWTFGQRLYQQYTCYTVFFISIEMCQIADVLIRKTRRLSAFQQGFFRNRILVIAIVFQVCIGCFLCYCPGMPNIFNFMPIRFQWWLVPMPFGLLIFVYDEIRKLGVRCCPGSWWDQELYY
Sequence of Proton Pump (H^+/K^+-ATPase) (P18434 whole entry partner): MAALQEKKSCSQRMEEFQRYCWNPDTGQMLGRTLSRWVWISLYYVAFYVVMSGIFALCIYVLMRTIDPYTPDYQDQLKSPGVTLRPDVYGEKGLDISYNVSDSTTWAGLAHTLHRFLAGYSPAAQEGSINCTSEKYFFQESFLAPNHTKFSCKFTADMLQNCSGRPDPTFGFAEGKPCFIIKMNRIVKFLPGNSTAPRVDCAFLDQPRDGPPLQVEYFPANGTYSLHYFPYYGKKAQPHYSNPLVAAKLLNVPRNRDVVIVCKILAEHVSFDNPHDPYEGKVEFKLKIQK
As for `CCn1c(C)c(C)c2cc(C(=O)N3CC=CCC3)nc(N3CCc4ccccc4C3)c21` [Example 809, [7-(3,4-dihydro-1H-isoquinolin-2-yl)-1-ethyl-2,3-dimethyl-1H-pyrrolo[2,3-c]pyridin-5-yl]-(3,6-dihydro-2H-pyridin-1-yl)-methanone hydrochloride], the 50% inhibitory concentration (IC50) (usually the concentration that inhibits the measured activity by half) was determined as 59 nM.

In turn, `Cc1c(C)n(Cc2ccc(C(C)(C)C)cc2)c2c(N3CCc4ccccc4C3)nc(C(=O)N3CCN(C)CC3)cc12` [Example 835, [1-(4-tert-butylbenzyl)-7-(3,4-dihydro-1H-isoquinolin-2-yl)-2,3-dimethyl-1H-pyrrolo[2,3-c]pyridin-5-yl]-(4-methylpiperazin-1-yl)-methanone hydrochloride] yielded an IC50 of 134 nM.

`Cc1[nH]c2c(-c3ccc(F)cc3)nccc2c1C` [Example 325, 7-(4-fluorophenyl)-2,3-dimethyl-1H-pyrrolo[2,3-c]pyridine hydrochloride] displayed an IC50 of 1980 nM.

For `Cc1c(C)n(Cc2cccc(F)c2)c2c(N3CCc4ccccc4C3)nc(N)cc12` [Example 847, 7-(3,4-dihydro-1H-isoquinolin-2-yl)-1-(3-fluorobenzyl)-2,3-dimethyl-1H-pyrrolo[2,3-c]pyridin-5-amine hydrochloride], 62 nM corresponded to half-maximal inhibition (IC50).

In turn, `Cc1c(C)n(Cc2ccccc2)c2c(N3CCc4ccccc4C3)nc(C(=O)n3ccnc3)cc12` [Example 839, [1-benzyl-7-(3,4-dihydro-1H-isoquinolin-2-yl)-2,3-dimethyl-1H-pyrrolo[2,3-c]pyridin-5-yl]-(imidazol-1-yl)-methanone hydrochloride] came in with a half-maximal inhibitory concentration (IC50) of 257 nM.

`CCC1c2ccccc2CCN1c1nccc2c(C)c(C)n(COC)c12` (stereo not drawn) [Example 584, 1-ethyl-2-(1-methoxymethyl-2,3-dimethyl-1H-pyrrolo[2,3-c]pyridin-7-yl)-1,2,3,4-tetrahydroisoquinoline hydrochloride] showed a half-inhibitory concentration (IC50) of 330 nM.

Consider `COCCn1c(C)c(C)c2ccnc(COc3ccc(F)cc3F)c21` [Example 34, 7-(2,4-difluorophenoxymethyl)-1-(2-methoxyethyl)-2,3-dimethyl-1H-pyrrolo[2,3-c]pyridine hydrochloride], for which the midpoint of inhibition, the IC50, lay at 1460 nM.

Take `CCn1c(C)c(C)c2cc(C(=O)N3CCCCC3)nc(N3CCc4ccccc4C3)c21` [Example 787, [7-(3,4-dihydro-1H-isoquinolin-2-yl)-1-ethyl-2,3-dimethyl-1H-pyrrolo[2,3-c]pyridin-5-yl]-(piperidin-1-yl)-methanone hydrochloride]: 1.1 nM corresponded to half-maximal inhibition (IC50).

In the case of `Cc1c(C)n(Cc2ccccc2)c2c(N3CCc4ccccc4C3)nc(C(=O)N3CCN(C)CC3)cc12` [Example 819, [1-benzyl-7-(3,4-dihydro-1H-isoquinolin-2-yl)-2,3-dimethyl-1H-pyrrolo[2,3-c]pyridin-5-yl]-(4-methylpiperazin-1-yl)-methanone hydrochloride], the IC50 came out at 12 nM.

With `Cc1ccccc1CNc1nccc2c(C)c(C)n(Cc3ccccc3)c12` [Example 216, 1-benzyl-2,3-dimethyl-7-(2-methylbenzylamino)-1H-pyrrolo[2,3-c]pyridine hydrochloride], it took 260 nM to reach half-maximal inhibition (IC50).

Compound `Cc1c(C)n(CC2CC2)c2c(CCc3ccccc3)nccc12` [Example 453, 1-cyclopropylmethyl-2,3-dimethyl-7-phenethyl-1H-pyrrolo[2,3-c]pyridine hydrochloride] returned a 50% inhibitory concentration (IC50) of 340 nM.

For the compound `CCn1c(C)c(C)c2cc(C(=O)N3CCC(CCO)CC3)nc(N3CCc4ccccc4C3)c21` [Example 804, [7-(3,4-dihydro-1H-isoquinolin-2-yl)-1-ethyl-2,3-dimethyl-1H-pyrrolo[2,3-c]pyridin-5-yl]-[4-(2-hydroxyethyl)-piperidin-1-yl]-methanone hydrochloride], the IC50 is 36 nM.

`Cc1c(C)n(Cc2ccc(OC(F)(F)F)cc2)c2c(N3CCc4ccccc4C3)nccc12` [Example 479, 1-(4-trifluoromethoxybenzyl)-7-(1,2,3,4-tetrahydroisoquinolin-2-yl)-2,3-dimethyl-1H-pyrrolo[2,3-c]pyridine hydrochloride] returned an IC50 of 1140 nM.

`Cc1c(C)n(CC2CC2)c2c(COc3ccc(F)cc3)nccc12` [Example 7, 1-cyclopropylmethyl-7-(4-fluorophenoxymethyl)-2,3-dimethyl-1H-pyrrolo[2,3-c]pyridine hydrochloride] showed a half-maximal inhibitory concentration (IC50) of 380 nM.

`Cc1c(C)n(Cc2cccc(F)c2)c2c(N3CCc4ccccc4C3)nc(C(=O)n3ccnc3)cc12` [Example 840, [7-(3,4-dihydro-1H-isoquinolin-2-yl)-1-(3-fluorobenzyl)-2,3-dimethyl-1H-pyrrolo[2,3-c]pyridin-5-yl]-(imidazol-1-yl)-methanone hydrochloride]: inhibition was half-maximal at 169 nM (IC50).

Compound `C=Cc1ccc(-c2nccc3c(C)c(C)[nH]c23)cc1` [Example 242, 2,3-dimethyl-7-(4-vinylphenyl)-1H-pyrrolo[2,3-c]pyridine] had a concentration for half-maximal inhibition (IC50) of 100 nM.

Turning to `C=CCn1c(C)c(C)c2cc(C(=O)NC)nc(N3CCc4ccccc4C3)c21` [Example 757, 1-allyl-7-(3,4-dihydro-1H-isoquinolin-2-yl)-2,3-dimethyl-N-methyl-1H-pyrrolo[2,3-c]pyridin-5-carboxamide hydrochloride], the concentration for half-maximal inhibition (IC50) worked out at 30 nM.

The compound `Cc1c(C)n(CCc2ccc(S(C)(=O)=O)cc2)c2c(N3CCc4ccccc4C3)nccc12` [Example 512, 1-[2-(4-methylsulfonylphenyl)ethyl]-7-(1,2,3,4-tetrahydroisoquinolin-2-yl)-2,3-dimethyl-1H-pyrrolo[2,3-c]pyridine hydrochloride] gave an IC50 of 130 nM.

`C=Cc1ccc(-c2nccc3c(C)c(C)n(Cc4ccc(F)cc4)c23)cc1` [Example 258, 2,3-dimethyl-1-(4-fluorobenzyl)-7-(4-vinylphenyl)-1H-pyrrolo[2,3-c]pyridine hydrochloride] gave a half-inhibitory concentration (IC50) of 330 nM.

The compound `CSc1ccc(-c2nccc3c(C)c(C)n(Cc4ccc(F)cc4)c23)cc1` [Example 274, 2,3-dimethyl-1-(4-fluorobenzyl)-7-(4-methylsulfanylphenyl)-1H-pyrrolo[2,3-c]pyridine hydrochloride] displayed a concentration for half-maximal inhibition (IC50) of 420 nM.

`COc1ccc(Cn2c(C)c(C)c3ccnc(N4CCc5ccccc5C4C)c32)cc1` (stereo not drawn) [Example 558, 2-[1-(4-methoxybenzyl)-2,3-dimethyl-1H-pyrrolo[2,3-c]pyridin-7-yl]-1-methyl-1,2,3,4-tetrahydroisoquinoline hydrochloride]: the IC50 is 430 nM.

`CCC1c2ccccc2CCN1c1nccc2c(C)c(C)n(C)c12` (stereo not drawn) [Example 575, 1-ethyl-2-(1,2,3-trimethyl-1H-pyrrolo[2,3-c]pyridin-7-yl)-1,2,3,4-tetrahydroisoquinoline hydrochloride] came in with a concentration for half-maximal inhibition (IC50) of 470 nM.

In the case of `Cc1ccc(Cn2c(C)c(C)c3ccnc(N4CCc5ccc(F)cc5C4C)c32)cc1` (stereo not drawn) [Example 548, 2-[2,3-dimethyl-1-(4-methylbenzyl)-1H-pyrrolo[2,3-c]pyridin-7-yl]-7-fluoro-1-methyl-1,2,3,4-tetrahydroisoquinoline hydrochloride], half-maximal inhibition (IC50) required 410 nM.

The compound `C=CCn1c(C)c(C)c2ccnc(N3CCc4ccccc4C3)c21` [Example 492, 1-allyl-7-(1,2,3,4-tetrahydroisoquinolin-2-yl)-2,3-dimethyl-1H-pyrrolo[2,3-c]pyridine phosphate] displayed a half-inhibitory concentration (IC50) of 7 nM.

Regarding `C=CCn1c(C)c(C)c2ccnc(-c3ccc(C=C)cc3)c21` [Example 245, 1-allyl-2,3-dimethyl-7-(4-vinylphenyl)-1H-pyrrolo[2,3-c]pyridine hydrochloride], 100 nM corresponded to half-maximal inhibition (IC50).

In turn, `CC=CCn1c(C)c(C)c2ccnc(NCc3ccccc3)c21` [Example 183, 7-benzylamino-1-(but-2-enyl)-2,3-dimethyl-1H-pyrrolo[2,3-c]pyridine hydrochloride] came in with a concentration for half-maximal inhibition (IC50) of 220 nM.

Turning to `CC(C)=CCn1c(C)c(C)c2ccnc(N3CCc4ccccc4C3)c21` [Example 475, 1-(3-methylbut-2-enyl)-7-(1,2,3,4-tetrahydroisoquinolin-2-yl)-2,3-dimethyl-1H-pyrrolo[2,3-c]pyridine hydrochloride], half-maximal inhibition (IC50) was put at 300 nM.

In the case of `Cc1[nH]c2c(N3CCc4ccccc4C3)nc(C(=O)N3CCOCC3)cc2c1C` [Example 776, [7-(3,4-dihydro-1H-isoquinolin-2-yl)-2,3-dimethyl-1H-pyrrolo[2,3-c]pyridin-5-yl]-(morpholin-4-yl)-methanone], half-maximal inhibition (IC50) required 85 nM.

The compound `Cc1c(C)n(CC2CC2)c2c(N3CCc4ccccc4C3)nc(C(=O)N3CCCCC3)cc12` [Example 793, [1-cyclopropylmethyl-7-(3,4-dihydro-1H-isoquinolin-2-yl)-2,3-dimethyl-1H-pyrrolo[2,3-c]pyridin-5-yl]-(piperidin-1-yl)-methanone hydrochloride] yielded a concentration for half-maximal inhibition (IC50) of 117 nM.

In turn, `CSc1ccc(-c2nccc3c(C)c(C)n(Cc4cccc(F)c4)c23)cc1` [Example 272, 2,3-dimethyl-1-(3-fluorobenzyl)-7-(4-methylsulfanylphenyl)-1H-pyrrolo[2,3-c]pyridine hydrochloride] had an IC50 of 220 nM.

`COCn1c(C)c(C)c2ccnc(N3CCc4ccccc4C3)c21` [Example 496, 1-methoxymethyl-7-(1,2,3,4-tetrahydroisoquinolin-2-yl)-2,3-dimethyl-1H-pyrrolo[2,3-c]pyridine hydrochloride] displayed an IC50 of 230 nM.

Consider `COCCn1c(C)c(C)c2cc(C(=O)n3ccnc3)nc(N3CCc4ccccc4C3)c21` [Example 842, [7-(3,4-dihydro-1H-isoquinolin-2-yl)-1-(2-methoxyethyl)-2,3-dimethyl-1H-pyrrolo[2,3-c]pyridin-5-yl]-(imidazol-1-yl)-methanone hydrochloride], for which the concentration for half-maximal inhibition (IC50) was determined as 480 nM.

Compound `Cc1c(C)n(CC2CCC2)c2c(N3CCc4ccccc4C3)nc(C(=O)N3CCN(C)CC3)cc12` [Example 830, [1-cyclobutylmethyl-7-(3,4-dihydro-1H-isoquinolin-2-yl)-2,3-dimethyl-1H-pyrrolo[2,3-c]pyridin-5-yl]-(4-methylpiperazin-1-yl)-methanone hydrochloride] came in with an IC50 of 44 nM.
